Data reported in ChEMBL document CHEMBL4831551, “Novel Heteroaromatic Carboxamides as Plasma Kallikrein Inhibitors for Treating Diabetic Complications, Ocular Diseases, and Edema-Associated Diseases” (ACS Med Chem Lett, 2021).

target: Plasma kallikrein (Homo sapiens, UniProt P03952); assay: Inhibition of kallikrein (unknown origin) using H-Pro-Phe-Arg-AMC as substrate incubated for 1 hr by fluorescence based analysis
Sequence (P03952 20-390 limits assumed): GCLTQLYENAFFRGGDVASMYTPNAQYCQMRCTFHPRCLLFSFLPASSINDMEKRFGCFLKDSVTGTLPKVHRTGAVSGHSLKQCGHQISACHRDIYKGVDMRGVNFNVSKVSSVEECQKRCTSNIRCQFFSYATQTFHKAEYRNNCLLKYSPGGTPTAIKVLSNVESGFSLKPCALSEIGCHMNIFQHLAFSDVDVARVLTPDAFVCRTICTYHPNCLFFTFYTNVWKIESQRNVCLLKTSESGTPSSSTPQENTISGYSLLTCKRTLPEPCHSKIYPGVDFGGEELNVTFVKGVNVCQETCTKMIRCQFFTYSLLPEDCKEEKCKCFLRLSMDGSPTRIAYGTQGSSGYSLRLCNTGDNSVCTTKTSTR
Sequence (P03952 391-638 limits assumed): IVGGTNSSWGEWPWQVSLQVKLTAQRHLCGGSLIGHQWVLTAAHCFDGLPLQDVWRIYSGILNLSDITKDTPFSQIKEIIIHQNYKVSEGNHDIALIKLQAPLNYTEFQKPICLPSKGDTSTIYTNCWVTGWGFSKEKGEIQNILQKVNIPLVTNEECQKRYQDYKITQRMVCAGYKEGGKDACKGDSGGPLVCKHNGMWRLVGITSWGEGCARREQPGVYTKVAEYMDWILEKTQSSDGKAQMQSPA

Structure (SMILES)	IC50 [nM]
Cc1[nH]nc2c1CC[C@H]2NC(=O)c1cnn(Cc2ccc(N3CC4CC4C3)nc2C(F)F)c1 (stereo partly specified)	0.8
Cc1[nH]nc2c1CC[C@H]2NC(=O)c1cn(Cc2ccc(N3CC4(CC4)C3)nc2C(F)F)cn1	0.5
Cc1[nH]nc2c1CC[C@H]2NC(=O)c1cn(Cc2ccc(N3CC4C(C3)C4(F)F)nc2C(F)F)cn1 (stereo partly specified)	0.6
Cc1[nH]nc2c1CC[C@H]2NC(=O)c1cn(Cc2ccc(N3CC4(CC4)C3)nc2C(F)F)nn1	0.5
Cc1[nH]nc2c1CC[C@H]2NC(=O)c1cn(Cc2ccc(N3CC4CC4C3)nc2C(F)F)cn1 (stereo partly specified)	0.7
Cc1[nH]nc2c1CC[C@H]2NC(=O)c1cnn(Cc2ccc(N3CC4C(C3)C4(F)F)nc2C(F)F)c1 (stereo partly specified)	0.8
